From US20100267561A1, “HERBICIDAL PYRIDAZINONE DERIVATIVES” (priority 2007, published 2010)

Legend:
Assay type in all cases: in vivo
[1] = tested on: johnsongrass (Sorghum halepense); assay: Test E pre-/postemergence plant response; details: scale 0 to 100
Source text: (§1) Seeds of plant species selected from bermudagrass (Cynodon dactylon), Surinam grass (Brachiaria decumbens), large crabgrass (Digitaria sanguinalis), green foxtail (Setaria viridis), goosegrass (Eleusine indica), johnsongrass (Sorghum halepense), kochia (Kochia scoparia), pitted morningglory (Ipomoea lacunosa), purple nutsedge (Cyperus rotundus), common ragweed (Ambrosia elation), black mustard (Brassica nigra), guineagrass (Panicum maximum), dallisgrass (Paspalum dilatatum), barnyardgrass (Echinochloa crus-galli), southern (S.) sandbur (Cenchrus echinatus), common sowthistle (Sonchus oleraceous), prickly sida (Sida spinosa), Italian ryegrass (Lolium multiflorum), common purslane (Portulaca oleracea), broadleaf signalgrass (Brachiaria platyphylla), common groundsel (Senecio vulgaris), common chickweed (Stellaria media), Virginia (V.) dayflower (Commelina virginica), tropical (T.) spiderwort (Commelina benghalensis), annual bluegrass (Poa annua), naked crabgrass (Digitaria nuda), itchgrass (Rottboellia cochinchinensis), quackgrass (Elytrigia repens), Canada horseweed (Conyza canadensis), field bindweed (Convolvulus arvensis), spanishneedles (Bidens bipinnata), common mallow (Malva sylvestris) and Russian thistle (Salsola kali) were planted and treated preemergence with test chemicals formulated in a non-phytotoxic solvent mixture which included a surfactant. At the same time, plants selected from these weed species were treated with postemergence applications of some of the test chemicals formulated in the same manner. Plants ranged in height from 2 to 18 cm (1- to 4-leaf stage) for postemergence treatments.
(§2) Treated plants and controls were maintained in a greenhouse for 14 to 21 days, after which time all species were compared to controls and visually evaluated. Plant response ratings, summarized in Table E, are based on a scale of 0 to 100 where 0 is no effect and 100 is complete control. A dash (-) response means no test result.

[2] = tested on: barnyardgrass (Echinochloa crus-galli); assay: Test E pre-/postemergence plant response; details: scale 0 to 100
Source text: as §1, §2

[3] = tested on: pitted morningglory (Ipomoea lacunosa); assay: Test E pre-/postemergence plant response; details: scale 0 to 100
Source text: as §1, §2

[4] = tested on: Italian ryegrass (Lolium multiflorum); assay: Test E pre-/postemergence plant response; details: scale 0 to 100
Source text: as §1, §2

[5] = tested on: common chickweed (Stellaria media); assay: Test E pre-/postemergence plant response; details: Postemergence, scale 0 to 100
Source text: as §1, §2

[6] = tested on: annual bluegrass (Poa annua); assay: Test E pre-/postemergence plant response; details: scale 0 to 100
Source text: as §1, §2

[7] = tested on: southern (S.) sandbur (Cenchrus echinatus); assay: Test E pre-/postemergence plant response; details: scale 0 to 100
Source text: as §1, §2

[8] = tested on: naked crabgrass (Digitaria nuda); assay: Test E pre-/postemergence plant response; details: scale 0 to 100
Source text: as §1, §2

[9] = tested on: windgrass (Apera spica-venti); assay: Test C pre-/postemergence plant response
Summary of the method: (§3)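 Test chemicals in a non-phytotoxic solvent with surfactant were applied preemergence, and some were also applied postemergence to plants 2–18 cm tall (1- to 4-leaf stage). Visual ratings against controls were made after 15–25 days in a controlled environment, on a 0–100 scale where 100 means complete control.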

[10] = tested on: winter barley (Hordeum vulgare); assay: Test C pre-/postemergence plant response
Summary of the method: as §3

[11] = tested on: spring wheat (Triticum aestivum); assay: Test C pre-/postemergence plant response
Summary of the method: as §3

[12] = tested on: canola (Brassica rapa); assay: Test C pre-/postemergence plant response
Summary of the method: as §3

[13] = Postemergence, 8 g ai/ha, scale 0 to 100, 0 no effect, 100 complete control
[14] = Postemergence, 16 g ai/ha, scale 0 to 100, 0 no effect, 100 complete control
[15] = Postemergence, 31 g ai/ha, scale 0 to 100, 0 no effect, 100 complete control
[16] = Postemergence, 62 g ai/ha, scale 0 to 100, 0 no effect, 100 complete control
[17] = Preemergence, 8 g ai/ha, scale 0 to 100 (0 no effect, 100 complete control)
[18] = Preemergence, 16 g ai/ha, scale 0 to 100 (0 no effect, 100 complete control)
[19] = Preemergence, 31 g ai/ha, scale 0 to 100 (0 no effect, 100 complete control)
[20] = Preemergence, 62 g ai/ha, scale 0 to 100, 0 no effect, 100 complete control

Cc1cc(-c2ccc(Cl)cc2)nn1-c1c(OS(C)(=O)=O)cnn(C)c1=O [Compound 36]
Plant response rating, Johnsongrass ([1]; 16 g ai/ha, Preemergence): 75 | Plant response rating, Johnsongrass ([1]; 31 g ai/ha, Preemergence): 85 | Plant response rating, Johnsongrass ([1]; 62 g ai/ha, Preemergence): 95 | Plant response rating, Johnsongrass ([1]; Postemergence, 8 g ai/ha): 35 | Plant response rating, Johnsongrass ([1]; Postemergence, 16 g ai/ha): 50 | Plant response rating, Johnsongrass ([1]; Postemergence, 31 g ai/ha): 75 | Plant response rating, Johnsongrass ([1]; Postemergence, 62 g ai/ha): 95 | Plant response rating, Barnyardgrass ([2]; 8 g ai/ha, Preemergence): 80 | Plant response rating, Barnyardgrass ([2]; 16 g ai/ha, Preemergence): 95 | Plant response rating, Barnyardgrass ([2]; 31 g ai/ha, Preemergence): 95 | Plant response rating, Barnyardgrass ([2]; 62 g ai/ha, Preemergence): 100 | Plant response rating, Barnyardgrass ([2]; Postemergence, 8 g ai/ha): 50 | Plant response rating, Barnyardgrass ([2]; Postemergence, 16 g ai/ha): 50 | Plant response rating, Barnyardgrass ([2]; Postemergence, 31 g ai/ha): 95 | Plant response rating, Barnyardgrass ([2]; Postemergence, 62 g ai/ha): 100 | Plant response rating, Morningglory ([3]; 16 g ai/ha, Preemergence): 0 | Plant response rating, Morningglory ([3]; 31 g ai/ha, Preemergence): 0 | Plant response rating, Morningglory ([3]; 62 g ai/ha, Preemergence): 0 | Plant response rating, Morningglory ([3]; Postemergence, 8 g ai/ha): 0 | Plant response rating, Morningglory ([3]; Postemergence, 16 g ai/ha): 0 | Plant response rating, Morningglory ([3]; Postemergence, 31 g ai/ha): 0 | Plant response rating, Morningglory ([3]; Postemergence, 62 g ai/ha): 0 | Plant response rating, Ryegrass, Italian ([4]; 16 g ai/ha, Preemergence): 100 | Plant response rating, Ryegrass, Italian ([4]; 31 g ai/ha, Preemergence): 100 | Plant response rating, Ryegrass, Italian ([4]; 62 g ai/ha, Preemergence): 100 | Plant response rating, Ryegrass, Italian ([4]; Postemergence, 8 g ai/ha): 0 | Plant response rating, Ryegrass, Italian ([4]; Postemergence, 16 g ai/ha): 35 | Plant response rating, Ryegrass, Italian ([4]; Postemergence, 31 g ai/ha): 60 | Plant response rating, Ryegrass, Italian ([4]; Postemergence, 62 g ai/ha): 80 | Plant response rating, Chickweed ([5]; 8 g ai/ha): 0 | Plant response rating, Chickweed ([5]; 16 g ai/ha): 0 | Plant response rating, Bluegrass ([6]; 8 g ai/ha, Preemergence): 0 | Plant response rating, Bluegrass ([6]; 16 g ai/ha, Preemergence): 0 | Plant response rating, Bluegrass ([6]; 31 g ai/ha, Preemergence): 0 | Plant response rating, Bluegrass ([6]; 62 g ai/ha, Preemergence): 0 | Plant response rating, Bluegrass ([6]; Postemergence, 8 g ai/ha): 0 | Plant response rating, Bluegrass ([6]; Postemergence, 16 g ai/ha): 0 | Plant response rating, Bluegrass ([6]; Postemergence, 31 g ai/ha): 0 | Plant response rating, Bluegrass ([6]; Postemergence, 62 g ai/ha): 0 | Plant response rating, Sandbur, S. ([7]; 16 g ai/ha, Preemergence): 90 | Plant response rating, Sandbur, S. ([7]; 31 g ai/ha, Preemergence): 100 | Plant response rating, Sandbur, S. ([7]; 62 g ai/ha, Preemergence): 100 | Plant response rating, Sandbur, S. ([7]; Postemergence, 8 g ai/ha): 40 | Plant response rating, Sandbur, S. ([7]; Postemergence, 16 g ai/ha): 65 | Plant response rating, Sandbur, S. ([7]; Postemergence, 31 g ai/ha): 80 | Plant response rating, Sandbur, S. ([7]; Postemergence, 62 g ai/ha): 85 | Plant response rating, Crabgrass, Naked ([8]; 8 g ai/ha, Preemergence): 90 | Plant response rating, Crabgrass, Naked ([8]; 16 g ai/ha, Preemergence): 100 | Plant response rating, Crabgrass, Naked ([8]; 31 g ai/ha, Preemergence): 100 | Plant response rating, Crabgrass, Naked ([8]; 62 g ai/ha, Preemergence): 100 | Plant response rating, Crabgrass, Naked ([8]; Postemergence, 8 g ai/ha): 40 | Plant response rating, Crabgrass, Naked ([8]; Postemergence, 16 g ai/ha): 60 | Plant response rating, Crabgrass, Naked ([8]; Postemergence, 31 g ai/ha): 90 | Plant response rating, Crabgrass, Naked ([8]; Postemergence, 62 g ai/ha): 98

Cc1cc(-c2ccc(Cl)cc2)nn1-c1c(OC(=O)OCC(C)C)cnn(C)c1=O [Compound 57]
Plant response rating, Windgrass [9, 13]: 0 | Plant response rating, Windgrass [9, 14]: 0 | Plant response rating, Windgrass [9, 15]: 0 | Plant response rating, Windgrass [9, 16]: 65 | Plant response rating, Windgrass [9, 17]: 0 | Plant response rating, Windgrass [9, 18]: 0 | Plant response rating, Windgrass [9, 19]: 50 | Plant response rating, Windgrass [9, 20]: 75 | Plant response rating, Barley, Winter [10, 13]: 0 | Plant response rating, Barley, Winter [10, 14]: 15 | Plant response rating, Barley, Winter [10, 15]: 15 | Plant response rating, Barley, Winter [10, 16]: 90 | Plant response rating, Barley, Winter [10, 17]: 0 | Plant response rating, Barley, Winter [10, 18]: 0 | Plant response rating, Barley, Winter [10, 19]: 20 | Plant response rating, Barley, Winter [10, 20]: 60 | Plant response rating, Wheat, Spring [11, 13]: 0 | Plant response rating, Wheat, Spring [11, 14]: 25 | Plant response rating, Wheat, Spring [11, 15]: 75 | Plant response rating, Wheat, Spring [11, 16]: 75 | Plant response rating, Wheat, Spring [11, 17]: 20 | Plant response rating, Wheat, Spring [11, 18]: 20 | Plant response rating, Wheat, Spring [11, 19]: 65 | Plant response rating, Wheat, Spring [11, 20]: 90 | Plant response rating, Canola [12, 13]: 0 | Plant response rating, Canola [12, 14]: 0 | Plant response rating, Canola [12, 15]: 0 | Plant response rating, Canola [12, 16]: 0 | Plant response rating, Canola [12, 17]: 0 | Plant response rating, Canola [12, 20]: 0
